Source: ChEMBL document CHEMBL4270604, “Hedgehog pathway inhibitors of the acylthiourea and acylguanidine class show antitumor activity on colon cancer in vitro and in vivo” (Eur J Med Chem, 2018)

Key:
[1] = Stability of the compound in mouse deproteinized plasma at 37 degC after 120 mins by HPLC-MS/MS analysis; format: ADME, cell-free; details: 2 h
[2] = Drug recovery in mouse plasma at 37 degC after 120 mins by HPLC-MS/MS analysis; format: ADME, cell-free; details: read-out: Drug recovery
CYP3A4 [3] = biological target: T1, CYP3A4 (Homo sapiens, UniProt P08684); assay: Inhibition of recombinant human CYP3A4 expressed in insect cell microsomes at 5 uM using Luciferin-IPA as substrate preincubated for 10 mins followed by NADPH addition measured after 10 mins by luminometric method; format: ADME; details: probe Luciferin-IPA
T1 sequence (P08684 whole entry): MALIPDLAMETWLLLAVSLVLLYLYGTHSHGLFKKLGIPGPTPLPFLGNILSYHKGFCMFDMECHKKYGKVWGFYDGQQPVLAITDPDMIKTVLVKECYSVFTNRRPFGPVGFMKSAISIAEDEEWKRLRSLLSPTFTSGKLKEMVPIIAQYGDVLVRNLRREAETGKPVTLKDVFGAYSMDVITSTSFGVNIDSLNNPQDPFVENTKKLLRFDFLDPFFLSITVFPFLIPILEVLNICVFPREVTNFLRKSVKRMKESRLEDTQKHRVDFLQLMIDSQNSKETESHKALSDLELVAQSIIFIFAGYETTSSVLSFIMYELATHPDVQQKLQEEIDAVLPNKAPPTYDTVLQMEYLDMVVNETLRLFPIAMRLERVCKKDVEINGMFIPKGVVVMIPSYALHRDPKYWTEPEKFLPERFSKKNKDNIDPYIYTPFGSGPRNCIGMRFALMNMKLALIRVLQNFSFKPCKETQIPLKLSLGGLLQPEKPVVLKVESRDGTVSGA

[4] = Intrinsic clearance in mouse liver […] per million cells at 1 uM after 120 mins by HPLC-MS/MS analysis; format: ADME; details: 2 h
Mus musculus [5] = assay: Tlast in CD1 mouse at 200 mg/kg, po administered as single dose by HPLC-MS/MS analysis; format: ADME, organism-based; details: in vivo
Mus musculus [6] = assay: Toxicity in athymic nude mouse xenografted with human LS180 cells assessed as body weight loss at 200 mg/kg, po administered 5 days per week for 2 weeks; format: organism-based; details: in vivo
[7] = Inhibition of hedgehog signaling pathway-mediated differentiation of mouse C3H10T1/2 cells assessed as decrease in SAG-induced ALP activity after 6 days by chemiluminescence-based assay; details: C3H 10T1/2, 144 h
in vitro = details: human, Caco-2
Description: Apparent permeability of the compound from basolateral to apical side in human Caco2 cells assessed as drug recovery after 120 mins by LC-MS/MS analysis

LS180 [8] = assay: Antiproliferative activity against human LS180 cells after 72 hrs by sulforhodamine-B assay; format: functional, cell-based; details: for IC50: LS180, 72 h
[9] = Half life in cryopreserved mouse liver microsomes at 1 uM after 120 mins by HPLC-MS/MS analysis; format: ADME, microsome
CYP3A4 [10] = biological target: T1, CYP3A4; assay: Inhibition of recombinant human CYP3A4 expressed in insect cell microsomes at 1 uM using Luciferin-IPA as substrate preincubated for 10 mins followed by NADPH addition measured after 10 mins by luminometric method; format: ADME; details: probe Luciferin-IPA
[11] = Terminal half life in CD1 mouse at 200 mg/kg, po administered as single dose by HPLC-MS/MS analysis; format: ADME, organism-based; details: in vivo, read-out: beta t1/2 (converted)
[12] = Apparent clearance in CD1 mouse at 200 mg/kg, po administered as single dose by HPLC-MS/MS analysis; format: ADME, organism-based; details: in vivo
LS180 [13] = assay: Antitumor activity against human LS180 cells xenografted in athymic nude mouse assessed as tumor growth inhibition at 200 mg/kg, po administered 5 days per week for 2 weeks relative to vehicle-treated control; format: functional; details: read-out: TGI
[14] = Intrinsic clearance in mouse liver microsomes at 1 uM after 120 mins by HPLC-MS/MS analysis; format: ADME, microsome; details: read-out: CLH
[15] = biological target: T2, Coelenterazine h 2-monooxygenase (Renilla reniformis, UniProt P27652); assay: Effect on Renilla reniformis luciferase; format: ADME
T2 sequence (P27652 whole entry): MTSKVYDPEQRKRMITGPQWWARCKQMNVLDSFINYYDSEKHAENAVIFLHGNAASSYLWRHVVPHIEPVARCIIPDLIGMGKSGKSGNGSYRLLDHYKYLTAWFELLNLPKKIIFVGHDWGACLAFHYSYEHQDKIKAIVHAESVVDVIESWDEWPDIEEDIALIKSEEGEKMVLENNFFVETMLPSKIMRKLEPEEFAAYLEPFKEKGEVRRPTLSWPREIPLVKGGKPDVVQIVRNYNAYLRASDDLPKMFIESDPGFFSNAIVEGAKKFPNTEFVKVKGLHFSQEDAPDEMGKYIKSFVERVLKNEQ

[16] = Tmax in CD1 mouse at 200 mg/kg, po administered as single dose by HPLC-MS/MS analysis; format: ADME, organism-based; details: in vivo
CYP3A4 [17] = biological target: T1, CYP3A4; assay: Inhibition of recombinant human CYP3A4 expressed in insect cell microsomes at 10 uM using Luciferin-IPA as substrate preincubated for 10 mins followed by NADPH addition measured after 10 mins by luminometric method; format: ADME; details: probe Luciferin-IPA
[18] = Drug recovery in mouse deproteinized plasma at 37 degC after 120 mins by HPLC-MS/MS analysis; format: ADME, cell-free; details: read-out: Drug recovery

SMILES | Stability [1] | remaining at 2 h [2] | inhibition at 10 min, 5 µM (CYP3A4 [3]) | CLH [4] | Tlast (Mus musculus [5]) | Activity (Mus musculus [6]) | IC50 [7] | recovery at 2 h (in vitro) | Activity (LS180 [8]) | IC50 (LS180 [8]) | half-life at 1 µM [9] | inhibition at 10 min, 1 µM (CYP3A4 [10]) | half-life [11] | CL/F [12] | inhibition in vivo at 200 mg/kg (LS180 [13]) | CLint scaled at 1 µM [14] | Activity [15] | Tmax [16] | inhibition at 10 min, 10 µM (CYP3A4 [17]) | remaining at 2 h [18]
COc1cc(C(=O)NC(=N)Nc2ccc(C)c(NC(=O)c3ccc(CCc4ccccc4)cc3)c2)cc(OC)c1OC.Cl | Stable | 81.3% | 89% | 286 µL/min | 24 h | Non-Toxic | 40 nM | 44.6% | Dose-dependent effect | 2500 nM | 8.07 min | 76% | 2.5 h | 24.3 mL/min/kg | 48% | 756 mL/min/kg | Not Active | 4 h | 92% | 
COc1cc(C(=O)NC(=N)Nc2ccc(C)c(NC(=O)c3ccc(-c4ccccc4)cc3)c2)cc(OC)c1OC.Cl |  | 72.1% | 76% |  | 24 h |  | 60 nM | 31.9% | Dose-dependent effect | 9700 nM |  | 38% | 2.4 h | 14 mL/min/kg |  |  | Not Active | 2 h | 87% | 83%
COc1cc(C(=O)NC(=N)Nc2ccc(C)c(NC(=O)c3ccc(-c4ccc(F)cc4)cc3)c2)cc(OC)c1OC.Cl | Stable | 66.6% | 78% |  | 24 h |  | 70 nM | 30.6% | Dose-dependent effect | 8100 nM |  | 52% | 2.6 h | 14.9 mL/min/kg |  |  | Not Active | 1 h | 82% | 
